Consider 23 compounds from patent US20110212954A1, “ALPHA-LIPOIC ACID DERIVATIVES AND THEIR USE IN DRUG PREPARATION” (priority 2008, published 2011).

For series [1], the system named is protein pool extracted from murine liver. Kind of series: In vitro enzyme hydrolysis assay, thin-layer chromatography detection. It counts as in vitro ADME, mouse. As to conditions: 1 mg murine liver protein extract, 50 μg compound, 25° C. The protocol: In view of what found from the results of Example 29, an in vitro enzyme hydrolysis assay was carried out with the aim of further clarifying which of the synthesized derivatives behaved as alpha-lipoic acid precursors, i.e. as prodrugs able to release alpha-lipoic acid by hydrolysis.
A protein pool extracted from murine liver, containing enzymes able to promote hydrolysis of the compounds of the invention, was used to reintroduce in vitro the hydrolytic activity previously described in the pharmacokinetic studies.
Methodology • The liver of a wild-type mouse was removed; excess blood was removed by washing in phosphate buffer saline (PBS); • Said liver was transferred into a homogenizer with a sufficient amount of lysis buffer (50 mM Tris HCl pH 7.5-8.0; 150 mM NaCl; 5 mM EGTA pH 7.5-8.0; 50 mM NaF pH 8.0; 10% (v/v) glycerol; 1.5 mM MgCl2, 1% Triton X-100) enriched with protease and phosphatase inhibitors (Protease Inhibitor Cocktail; Sigma-Aldrich). 15-20 impacts were applied by the pestle in order to obtain a homogeneous solution; • The entire mixture was left under agitation at +4° C. for 1 hour; after centrifugation at 14000 rpm, the supernatant containing the extracted proteins was recovered; • The amount of extracted protein was determined using the Bradford assay; • The enzymatic hydrolysis reaction was carried out: 1 mg of protein extract for hydrolysing 50 μg of synthesized compound (dissolved in DMSO); 1, 3 or 24 hours at 25° C. under agitation; • The digestion product(s) was/were detected using thin-layer chromatography: mobile phase (60:40:1 of ethyl acetate; n-hexane; acetic acid); silica plate (Sigma-Aldrich); phosphomolybdic reagent; • The digestion products were analyzed and compared with (R)-α-LA (Sigma-Aldrich), and with the non-hydrolysed compound of the invention.
It was, therefore, possible to detect (R)-alpha-lipoic acid as the hydrolysis product and to differentiate it from the enantiomers of the invention.

The nature of series [2]: Pharmacokinetic study in rats after oral administration of a single dose, HPLC-MS of plasma. It is filed as in vivo. The settings on record: rat. The method, then: The bioavailability of some compounds synthesized (Examples 1a, 2, 2a, 3, 3a, 10, 15a, 16a and 24) was studied in rats after oral administration of a single dose (48.5 μmol/kg) and compared with the reference (R)- or (RS)-α-LA.
Each treatment was carried out on groups of 6 male rats (Sprague-Dawley SD rat) per compound. At regular times, blood withdrawals were carried out for the measurement by HPLC-MS of the concentration of plasmatic α-LA (FIGS. 5, 7, 9) and of the residual compound administered (FIGS. 6, 8).

As for `O=C(CCCC[C@@H]1CCSS1)NCCCc1ccccc1` [Example 12, (R)-5-[1,2]dithiolan-3-yl-pentanoic acid(3-phenyl-propyl)-amide], in series [1], the “amount of (R)-alpha-lipoic acid released after 24 h (FIG. 3)” value (from here on “amount of (R)-alpha-lipoic acid released”) was “reduced release” and the “enzymatic hydrolysis after 24 h (FIG. 3)” value is given as “partial hydrolization”. Turning to `O=C(CCCC[C@@H]1CCSS1)NCc1ccccc1` [Example 22, (R)-5-[1,2]dithiolan-3-yl-pentanoic acid N-benzylamide], in series [1], the “amount of (R)-alpha-lipoic acid released” value is on record as “very considerable amount” and the “enzymatic hydrolysis after 24 h (FIG. 3)” value was “not completely hydrolysed”. Regarding `CC(C)(C)C(=O)OCOC(=O)CCCC[C@@H]1CCSS1` [Example 15, (R)-5-[1,2]dithiolan-3-yl-pentanoic acid 2,2-dimethyl-propionyloxymethyl ester], the “enzymatic hydrolysis after 1 h (FIG. 2)” value in series [1] is on record as “completely hydrolyzed”.

For `CCCC(=O)OCOC(=O)CCCC[C@@H]1CCSS1` [Example 16, (R)-5-[1,2]dithiolan-3-yl-pentanoic acid butyryloxymethyl ester], the “enzymatic hydrolysis after 1 h (FIG. 2)” value in series [1] is “completely hydrolyzed”.

Consider `CC(OC(=O)CCCC[C@@H]1CCSS1)OC(=O)C(C)(C)C` (stereo partly drawn) [Example 18, (R)-5-[1,2]dithiolan-3-yl-pentanoic acid 2,2-dimethyl-propionyloxyethyl ester], for which, in series [1], the “enzymatic hydrolysis after 1 h (FIG. 2)” value is reported as “partial hydrolization” and the “enzymatic hydrolysis after 3 h (FIG. 2)” value is recorded as “completely hydrolyzed”. For `CCC(CC)NC(=O)CCCC[C@@H]1CCSS1` [Example 21, (R)-5-[1,2]dithiolan-3-yl-pentanoic acid pentan-3-ylamide], the “enzymatic hydrolysis after 24 h (FIG. 3)” value in series [1] is “remained essentially unaltered”. Consider `O=C(CCCC[C@@H]1CCSS1)NC1CCCC1` [Example 14, (R)-5-[1,2]dithiolan-3-yl-pentanoic acid cyclopentylamide], for which, in series [1], the “amount of (R)-alpha-lipoic acid released” value was “reduced release” and the “enzymatic hydrolysis after 24 h (FIG. 3)” value is on record as “partial hydrolization”. In the same order, the values of `O=C(CCCC[C@@H]1CCSS1)NCC1CC1` [Example 24, (R)-5-[1,2]dithiolan-3-yl-pentanoic acid N-(cyclopropylmethyl)amide] are “very considerable amount” and “not completely hydrolysed”. In the same order, the values of `COc1ccc(CNC(=O)CCCC[C@@H]2CCSS2)cc1OC(C)=O` [Example 27, (R)-5-[1,2]dithiolan-3-yl-pentanoic acid N-(3-acetoxy-4methoxybenzyl)amide] are “very considerable amount” and “not completely hydrolysed”.

`O=C(CCCC[C@@H]1CCSS1)N1CCOCC1` [Example 1, (R)-1-morpholin-4-yl-5-[1,2]dithiolan-3-yl-pentan-1-one]: in series [1], the “enzymatic hydrolysis after 24 h (FIG. 3)” value was “remained essentially unaltered”. With `CCCNC(=O)CCCC[C@@H]1CCSS1` [Example 7, (R)-5-[1,2]dithiolan-3-yl-pentanoic acid propylamide], in series [1], the “amount of (R)-alpha-lipoic acid released” value is reported as “reduced release” and the “enzymatic hydrolysis after 24 h (FIG. 3)” value is recorded as “partial hydrolization”.

Turning to `C=CCCNC(=O)CCCC[C@@H]1CCSS1` [Example 25, (R)-5-[1,2]dithiolan-3-yl-pentanoic acid N-(buten-3-yl)amide], in series [1], the “amount of (R)-alpha-lipoic acid released” value is recorded as “very considerable amount” and the “enzymatic hydrolysis after 24 h (FIG. 3)” value is “not completely hydrolysed”. For `O=C(CCCC[C@@H]1CCSS1)NCCCCc1ccccc1` [Example 13, (R)-5-[1,2]dithiolan-3-yl-pentanoic acid(4-phenyl-butyl)-amide], in that order: “reduced release” and “partial hydrolization”.

For `CCCCCCCNC(=O)CCCC[C@@H]1CCSS1` [Example 20, (R)-5-[1,2]dithiolan-3-yl-pentanoic acid n-heptylamide], the “enzymatic hydrolysis after 24 h (FIG. 3)” value in series [1] is on record as “remained essentially unaltered”. As for `CNC(=O)CCCC[C@@H]1CCSS1` [Example 6, (R)-5-[1,2]dithiolan-3-yl-pentanoic acid methylamide], in series [1], the “amount of (R)-alpha-lipoic acid released” value is on record as “reduced release” and the “enzymatic hydrolysis after 24 h (FIG. 3)” value is listed as “partial hydrolization”.

On to `CC(=O)OC(C)OC(=O)CCCC[C@@H]1CCSS1` (stereo partly drawn) [Example 17, (R)-5-[1,2]dithiolan-3-yl-pentanoic acid 1-acetoxy-ethyl ester], for which, in series [1], the “enzymatic hydrolysis after 1 h (FIG. 2)” value is reported as “partial hydrolization” and the “enzymatic hydrolysis after 3 h (FIG. 2)” value is “completely hydrolyzed”. Turning to `CCCC(C)NC(=O)CCCC[C@@H]1CCSS1` (stereo partly drawn) [Example 5, (R)-5-[1,2]dithiolan-3-yl-pentanoic acid(1-methyl-butyl)-amide], the “enzymatic hydrolysis after 24 h (FIG. 3)” value in series [1] is on record as “remained essentially unaltered”. Take `COc1ccc(CNC(=O)CCCC[C@@H]2CCSS2)cc1O` [Example 23, (R)-5-[1,2]dithiolan-3-yl-pentanoic acid N-(3-hydroxy-4methoxybenzyl)amide]: in series [1], the “amount of (R)-alpha-lipoic acid released” value is recorded as “very considerable amount” and the “enzymatic hydrolysis after 24 h (FIG. 3)” value was “not completely hydrolysed”. With `O=C(CCCC[C@@H]1CCSS1)NCCCN1CCOCC1` [Example 3, (R)-5-[1,2]dithiolan-3-yl-pentanoic acid(3-morpholin-4-yl-propyl)-amide], in series [2] (single dose 48.5 μmol/kg), the “released alpha-lipoic acid and compound itself in plasma, any withdrawal time” value is recorded as “neither released alpha-lipoic acid nor the compound itself was detected”. `CCCCCNC(=O)CCCC[C@@H]1CCSS1` [Example 19, (R)-5-[1,2]dithiolan-3-yl-pentanoic acid n-pentylamide]: in series [1], the “amount of (R)-alpha-lipoic acid released” value is given as “reduced release” and the “enzymatic hydrolysis after 24 h (FIG. 3)” value is “partial hydrolization”. With `CCCCNC(=O)CCCC[C@@H]1CCSS1` [Example 2, (R)-5-[1,2]dithiolan-3-yl-pentanoic acid butylamide], the “concentration of alpha-lipoic acid in plasma after 30 minutes from administration (FIG. 9)” value in series [2] (shorter treatment intervals (5-30 minutes)) is listed as “significant concentration”. The “hydrolysis profile in vivo compared with the corresponding racemic compound (FIG. 7 vs FIG. 5)” value in series [2] (single dose 48.5 μmol/kg) is on record as “more linear hydrolysis profile”. Also, in series [1], the “amount of (R)-alpha-lipoic acid released” value is “very considerable amount” and the “enzymatic hydrolysis after 24 h (FIG. 3)” value is on record as “not completely hydrolysed”. For the compound `O=C(CCCC[C@@H]1CCSS1)NCCc1ccccc1` [Example 11, (R)-5-[1,2]dithiolan-3-yl-pentanoic acid phenethyl-amide], in series [1], the “amount of (R)-alpha-lipoic acid released” value is recorded as “reduced release” and the “enzymatic hydrolysis after 24 h (FIG. 3)” value is reported as “partial hydrolization”. As for `CC1CCN(C(=O)CCCC[C@@H]2CCSS2)CC1` [Example 28, (R)-5-[1,2]dithiolan-3-yl-pentanoic acid 1-(4-methylpiperidin-1-yl)amide], the “enzymatic hydrolysis after 24 h (FIG. 3)” value in series [1] is recorded as “remained essentially unaltered”.
